Measured values reported in US6410533B1, “Antibacterial compounds” (Genzyme Corporation, priority 2000, dated 2002).
pIC50: −log10 of the molar value. Converted amounts (≈) assume the structure as drawn. Where two headings read alike, the source gives them in different places.

Columns and labels:
[1] = system: Staphylococcus aureus bacteria (ATCC 9604 SV); experiment: IC50 determination, growth inhibition by turbidity at 550 nm; assay type: cell-based; conditions: Staphylococcus aureus ATCC 9604 SV, turbidity at 550 nm after 3-5 h at 37° C.
Protocol: (§1) Minimal inhibitory concentrations (MICs) for Staphylococcus aureus bacteria (ATCC 9604 SV) were determined by broth microdilution methodology following National Committee for Clinical Laboratory Standards. In the MIC determinations, the compounds were incorporated into Mueller-Hinton broth (Becton Dickinson Microbiology systems, Cockeyville, Md.) at a series of concentrations. After the test organism was grown overnight in TB broth, the broths were adjusted to the turbidity equivalent to 0.05 McFarland standard. The suspensions were diluted twenty-fold into the broth containing the compounds. […] In the IC50 determination, the method was modified to allow the rapid growth of the organisms. The inoculum suspensions were adjusted to 0.1 McFarland standard and then diluted two-fold into the wells containing TB broth and the compounds. After three to five hours incubation at 37° C., the turbidity was measured at 550 nm and inhibitory activity was defined as the concentration of antimicrobial agent that inhibits 50% growth of the organism in the microdilution wells.

[2] = system: methicillin-resistant Staphylococcus aureus (ATCC 33591); experiment: In vivo mouse intraperitoneal infection, mortality and % survivors over 7 days; conditions: single dose 1 h post inoculation, MRSA ATCC 33591 i.p., ICR mice
Protocol: Ten male ICR mice weighing 20 grams were inoculated intraperitoneally with an LD90-100 dose (2-3×10^7 CFU/mouse) of methicillin-resistant Staphylococcus aureus (ATCC 33591) in brain-heart infusion broth containing 5% mucin. Compounds were suspended in a vehicle containing 1% cremophore EL (Sigma) in normal saline and were administered subcutaneously in a volume of 0.4 ml per mouse either 1 hour following bacterial inoculation or 1 and 5 hours post inoculation. Animals receiving two doses of drug were injected subcutaneously in the hindquarter one hour post-innoculation and in the neck area, 5 hours post-innoculation. Deaths occurring during the subsequent 7 days are recorded. Mortality and % survivor endpoints are calculated.

[3] = system: Staphylococcus aureus bacteria (ATCC 9604 SV); experiment: Minimal inhibitory concentration (MIC), broth microdilution; assay type: cell-based; conditions: 24 h at 37° C.
Protocol: as §1

[4] = Staphylococcus aureus ATCC 9604 SV

Row | pIC50 [1] | SMILES | also measured
1 | 6.48 | O=C(Nc1cc(C(F)(F)F)cc(C(F)(F)F)c1)Nc1c(-c2ccccc2)cnn1-c1ccc(C(F)(F)F)cc1 [Compound 71] | –
2 | 6.90 | O=C(Nc1cc(C(F)(F)F)cc(C(F)(F)F)c1)Nc1cc(Cc2ccccc2)nn1-c1ccc(C(F)(F)F)cc1 [Compound 74] | MIC [3, 4]: 3.43 µg/mL (≈ 5.99 µM)
3 | 7.02 | O=C(Nc1ccc(Cl)c(C(F)(F)F)c1)Nc1cc(-c2ccccc2)nn1-c1ccc(C(F)(F)F)cc1 [Compound 75] | MIC [3, 4]: <0.787 µg/mL
4 | 6.69 | O=C(Nc1cc(C(F)(F)F)cc(C(F)(F)F)c1)Nc1cc(-c2cccc(Cl)c2)nn1-c1ccc(C(F)(F)F)cc1 [Compound 78] | –
5 | 6.90 | O=C(Nc1cc(C(F)(F)F)cc(C(F)(F)F)c1)Nc1cc(-c2ccc(Cl)cc2)nn1-c1ccc(C(F)(F)F)cc1 [Compound 79] | –
6 | 6.27 | O=C(Nc1cc(C(F)(F)F)cc(C(F)(F)F)c1)Nc1cc(-c2cccc(C(F)(F)F)c2)nn1-c1ccc(C(F)(F)F)cc1 [Compound 80] | –
7 | 6.80 | O=C(Nc1cc(C(F)(F)F)cc(C(F)(F)F)c1)Nc1cc(-c2ccc(OC(F)(F)F)cc2)nn1-c1ccc(C(F)(F)F)cc1 [Compound 81] | –
8 | 6.83 | COc1ccc(-c2cc(NC(=O)Nc3cc(C(F)(F)F)cc(C(F)(F)F)c3)n(-c3ccc(C(F)(F)F)cc3)n2)cc1 [Compound 82] | –
9 | 6.44 | O=C(Nc1cc(C(F)(F)F)cc(C(F)(F)F)c1)Nc1cc(-c2ccccn2)nn1-c1ccc(C(F)(F)F)cc1 [Compound 85] | –
10 | 5.83 | O=C(Nc1cc(C(F)(F)F)cc(C(F)(F)F)c1)Nc1cc(-c2ccc(CN3CCOCC3)cc2)nn1-c1ccc(C(F)(F)F)cc1 [Compound 88] | MIC [3, 4]: >32.9 µg/mL
11 | 5.36 | CN(C)Cc1cc(NC(=O)Nc2cc(C(F)(F)F)cc(C(F)(F)F)c2)n(-c2ccc(C(F)(F)F)cc2)n1 [Compound 90] | MIC [3, 4]: 13.5 µg/mL (≈ 25 µM)
12 | – | O=C(Nc1cc(C(F)(F)F)cc(C(F)(F)F)c1)Nc1c(Br)cnn1-c1ccc(Br)cc1 [Compound 97, 1-(3,5-Bis-trifluoromethyl-phenyl)-3-[4-bromo-2-(4-bromo-phenyl)-2H-pyrazol-3-yl]-urea] | MIC ([3]; ATCC9604, Staphylococcus aureus ATCC 9604 SV, read-out: MIC): > 29.3 µg/mL; pIC50 ([1]; ATCC9604): 6.97
13 | 5.49 | O=C(Nc1cc(Cl)cc(Cl)c1)Nc1c2c(nn1-c1ccc(Br)cc1)CCCC2 [Compound 105] | MIC [3, 4]: >24.0 µg/mL
14 | 6.34 | O=C(Nc1cc(C(F)(F)F)cc(C(F)(F)F)c1)Nc1c2c(nn1-c1ccc(Br)cc1)CCCC2 [Compound 106] | MIC [3, 4]: >27.4 µg/mL
15 | 5.79 | Cc1cc(-c2cc(NC(=O)Nc3cc(Cl)cc(Cl)c3)n(-c3ccc(Br)cc3)n2)no1 [Compound 114] | –
16 | 6.40 | Cc1cc(-c2cc(NC(=O)Nc3cc(C(F)(F)F)cc(C(F)(F)F)c3)n(-c3ccc(Br)cc3)n2)no1 [Compound 115] | MIC [3, 4]: 1.72 µg/mL (≈ 3 µM)
17 | 6.62 | O=C(Nc1cc(Cl)cc(Cl)c1)Nc1cc(-c2ccncc2)nn1-c1ccc(Br)cc1 [Compound 118] | MIC [3, 4]: 0.755 µg/mL (≈ 1.5 µM)
18 | 6.79 | O=C(Nc1cc(C(F)(F)F)cc(C(F)(F)F)c1)Nc1cc(-c2ccncc2)nn1-c1ccc(Br)cc1 [Compound 119] | MIC [3, 4]: 0.855 µg/mL (≈ 1.5 µM)
19 | 5.57 | Cc1cnc(NC(=O)Nc2cc(C(F)(F)F)cc(C(F)(F)F)c2)s1 [Compound 122] | MIC [3, 4]: >18.5 µg/mL
20 | 6.28 | Cc1nc(NC(=O)Nc2cc(C(F)(F)F)cc(C(F)(F)F)c2)sc1C [Compound 123] | MIC [3, 4]: 1.15 µg/mL (≈ 3 µM)
21 | 6.29 | CC(C)(C)c1csc(NC(=O)Nc2cc(C(F)(F)F)cc(C(F)(F)F)c2)n1 [Compound 124] | –
22 | 5.68 | O=C(Nc1cc(C(F)(F)F)cc(C(F)(F)F)c1)Nc1nc(CCCO)cs1 [Compound 125] | –

Row | pIC50 [1] | SMILES | also measured
23 | 6.01 | O=C(Nc1cc(C(F)(F)F)cc(C(F)(F)F)c1)Nc1nc(-c2ccccc2)cs1 [Compound 132] | –
24 | 5.33 | COc1ccccc1-c1csc(NC(=O)Nc2cc(C(F)(F)F)cc(C(F)(F)F)c2)n1 [Compound 133] | –
25 | 5.34 | COc1cccc(-c2csc(NC(=O)Nc3cc(C(F)(F)F)cc(C(F)(F)F)c3)n2)c1 [Compound 134] | –
26 | 6.88 | O=C(Nc1cc(C(F)(F)F)cc(C(F)(F)F)c1)Nc1nc(-c2ccc(Br)cc2)cs1 [Compound 136] | –
27 | 6.08 | Cc1sc(NC(=O)Nc2cc(C(F)(F)F)cc(C(F)(F)F)c2)nc1-c1ccc(Br)cc1 [Compound 137] | –
28 | – | O=C(Nc1cc(C(F)(F)F)cc(C(F)(F)F)c1)Nc1nc(-c2ccc(Cl)cc2)cs1 [Compound 138, 1-(3,5-Bis-trifluoromethyl-phenyl)-3-[4-(4-chloro-phenyl)-thiazol-2-yl]-urea] | pIC50 ([1]; ATCC9604): 7.00
29 | 6.19 | Cc1ccc(-c2csc(NC(=O)Nc3cc(C(F)(F)F)cc(C(F)(F)F)c3)n2)cc1 [Compound 140] | –
30 | 5.87 | COc1ccc(-c2csc(NC(=O)Nc3cc(C(F)(F)F)cc(C(F)(F)F)c3)n2)cc1 [Compound 141] | –
31 | 6.47 | N#Cc1ccc(-c2csc(NC(=O)Nc3cc(C(F)(F)F)cc(C(F)(F)F)c3)n2)cc1 [Compound 144] | –
32 | 6.10 | O=C(Nc1cc(C(F)(F)F)cc(C(F)(F)F)c1)Nc1nc(-c2ccc(-c3ccccc3)cc2)cs1 [Compound 147] | –
33 | 6.40 | O=C(Nc1cc(C(F)(F)F)cc(C(F)(F)F)c1)Nc1nc(-c2ccc(Cl)cc2Cl)cs1 [Compound 148] | –
34 | 6.06 | O=C(Nc1cc(C(F)(F)F)cc(C(F)(F)F)c1)Nc1nc(-c2ccc(F)cc2F)cs1 [Compound 149] | –
35 | 6.39 | O=C(Nc1cc(C(F)(F)F)cc(C(F)(F)F)c1)Nc1nc(-c2ccc(Cl)c(Cl)c2)cs1 [Compound 150] | –
36 | 5.84 | O=C(Nc1cc(C(F)(F)F)cc(C(F)(F)F)c1)Nc1nc(-c2ccc3ccccc3c2)cs1 [Compound 153] | –
37 | 6.48 | Cc1c(-c2csc(NC(=O)Nc3cc(C(F)(F)F)cc(C(F)(F)F)c3)n2)sc2ccc(Cl)cc12 [Compound 157] | –
38 | 6.27 | O=C(Nc1cccc(Br)c1)Nc1nc(-c2ccc(Br)cc2)cs1 [Compound 159] | –
39 | 5.33 | O=C(Nc1nc(-c2ccc(Cl)cc2)cs1)Nc1ccc(Br)cc1C(F)(F)F [Compound 162] | –
40 | 6.74 | O=C(Nc1cc(Cl)cc(Cl)c1)Nc1nc(-c2ccc(Cl)cc2)cs1 [Compound 163] | –
41 | 5.58 | O=C(Nc1cc(Cl)cc(Cl)c1)Nc1nc(-c2ccc(F)c(F)c2)cs1 [Compound 164] | –
42 | 6.69 | O=C(Nc1ccc(F)c(C(F)(F)F)c1)Nc1nc(-c2ccc(Br)cc2)cs1 [Compound 166] | –
43 | 6.76 | O=C(Nc1ccc(F)c(C(F)(F)F)c1)Nc1nc(-c2ccc(Cl)cc2)cs1 [Compound 167] | –
44 | 6.03 | O=C(Nc1nc(-c2ccc(Cl)cc2)cs1)Nc1c(Cl)cc(Cl)cc1Cl [Compound 171] | –

Row | SMILES | pIC50 [1] | also measured
45 | CC(C)(C)c1cc(NC(=O)Nc2cc(Cl)cc(Cl)c2)n(-c2ccc(C(F)(F)F)cc2)n1 [Compound 73] | 7.08 | In Vivo, single dose (% of mice rescued) ([2]; 2 mg/kg s.c.): 0% @ 2 mg/kg; In Vivo, single dose (% of mice rescued) ([2]; 20 mg/kg s.c.): 0% @ 20 mg/kg
46 | CCOC(=O)c1nc(NC(=O)Nc2cc(C(F)(F)F)cc(C(F)(F)F)c2)sc1C [Compound 128] | 6.29 | In Vivo, single dose (% of mice rescued) ([2]; 2 mg/kg s.c.): 0% @ 2 mg/kg; In Vivo, single dose (% of mice rescued) ([2]; 20 mg/kg s.c.): 0% @ 20 mg/kg
47 | O=C(Nc1cc(C(F)(F)F)cc(C(F)(F)F)c1)Nc1nc(-c2ccc(F)cc2)cs1 [Compound 139] | 7.00 | In Vivo, single dose (% of mice rescued) ([2]; 2 mg/kg s.c.): 0% @ 2 mg/kg; In Vivo, single dose (% of mice rescued) ([2]; 20 mg/kg s.c.): 0% @ 20 mg/kg
